{
  "source": "ChEMBL document CHEMBL1944573",
  "about": "“New bisabolane sesquiterpenoids from a marine-derived fungus Aspergillus sp. isolated from the sponge Xestospongia testudinaria” (Bioorg Med Chem Lett, 2012)",
  "key": {"[1]": {"system": "HepG2", "test": "Cytotoxicity against human HepG2 cells by MTT assay", "format": "functional, cell-based"}, "[2]": {"system": "Ca-Ski", "test": "Cytotoxicity against human CaSki cells by MTT assay", "format": "functional, cell-based"}},
  "data": [
    {"smiles": "CC(C)CCC[C@](C)(O)c1ccc(COc2cc(CO)ccc2[C@@](C)(O)CCCC(C)C)cc1O", "note": "[DISYDONOL A]", "values": [
      {"measurement": "IC50", "setting": "[1]", "value": 9.31, "unit": "mg/L"},
      {"measurement": "IC50", "setting": "[2]", "value": 12.4, "unit": "mg/L"}
    ]},
    {"smiles": "CC(C)CCC[C@](C)(O)c1ccc(CO)cc1Oc1cc(CO)ccc1[C@](C)(O)CCCC(C)C", "note": "[DISYDONOL B]", "values": [
      {"measurement": "IC50", "setting": "[1]", "value": "> 100", "unit": "mg/L"},
      {"measurement": "IC50", "setting": "[2]", "value": "> 100", "unit": "mg/L"}
    ]},
    {"smiles": "CC(C)CCC[C@](C)(O)c1ccc(Cc2cc([C@@](C)(O)CCCC(C)C)c(O)cc2CO)cc1O", "note": "[DISYDONOL C]", "values": [
      {"measurement": "IC50", "setting": "[1]", "value": 2.91, "unit": "mg/L"},
      {"measurement": "IC50", "setting": "[2]", "value": 10.2, "unit": "mg/L"}
    ]}
  ]
}
